According to patent US6821954B2, “Compounds and uses thereof in treating bone disorders” (Auckland UniServices Limited, priority 1997, dated 2004):
Bridge positions count the residues as written; N and C are the ends. Ends that are not written are not given here. Peptide text beside a SMILES is read from it.

How the values were obtained:
[1] = Catabolism of peptides in calvarial organ culture (pre-incubation, then test on osteoblast proliferation); format: in vitro ADME, mouse; conditions: for effect of pre-incubation for two hours on osteoblastic activity: pre-incubation in calvarial organ culture 2 hours; for effect of pre-incubation for two hours on osteoblastic activity / osteoblastic activity after pre-incubation for four or more hours: cell number or thymidine incorporation, FIG. 7; for osteoblastic activity after pre-incubation for four or more hours: pre-incubation in calvarial organ culture four or more hours; for ability to block amylin's stimulation of osteoblast proliferation after pre-incubation: pre-incubation with calvariae for six hours, FIG. 8
Method: To determine whether the various peptide fragments underwent significant catabolism in organ culture, they were incubated with calvariae before being added to osteoblast cultures. The organ cultures were set up using hemicalvariae from animals that had not be pretreated with ^45Ca. The fragments or vehicle were incubated with the calvariae for 2, 4, or 6 hours. Extracts of the media were removed then immediately added to osteoblast cultures for measurement of their effects on osteoblast proliferation, as described above.

neonatal mouse calvariae = experiment: Bone resorption in bone organ culture (45Ca release); format: cell-based; conditions: for effect on basal bone resorption: 10^−8 M, calcium release, FIG. 6
Method: Bone resorption studies were carried out in neonatal mouse calvariae as described previously. Mice were injected subcutaneously with […] at 2 days of age, and hemicalvariae were dissected out four days later. Hemicalvariae were pre-incubated for 24 hours in medium 199 with 0.1% bovine serum albumin, then changed to fresh medium containing peptide or vehicle. Incubation was continued for a further 48 hours. There were 5-7 hemicalvariae in each group.

fetal rat osteoblasts = experiment: Osteoblast proliferation studies (cell counts and [3H]-thymidine incorporation) in osteoblast-like cell culture; format: cell-based; conditions: for effect on osteoblast cell number / effect on thymidine incorporation / proliferative effect on osteoblasts: 10^−9 M; for effect on osteoblast cell number: 24 h incubation; for effect on osteoblast cell number / effect on thymidine incorporation: FIG. 1; for effect on thymidine incorporation: last two hours of 24 h incubation; for EC50: read-out: half-maximally effective concentration on cell number; for proliferative effect on osteoblasts: cell number and thymidine incorporation; for concentration that completely blocked the proliferative effect of intact amylin: intact amylin 10^−9 M, cell number, FIG. 4; for blocking of the action of intact amylin on cell number / blocking of the action of intact amylin on thymidine incorporation: equimolar concentrations (10^−9 M), FIG. 5, FIG. 9; for blocking of the effects of amylin-(1-8) on osteoblast proliferation: equimolar concentrations
Method: Osteoblasts were isolated by collagenase-digestion from 20-day fetal rat calvariae. Calvariae were dissected aseptically and the frontal and parietal bones were stripped of their periosteum. only the central portions of the bones, free from sutrue tissue, were collected. The calvariae were treated twice with phosphate buffered saline (PBS) containing 3 mM EDTA (pH 7.4) for 15 minutes at 37E C. in a shaking water bath. After washing once in PBS, the calvariae were treated twice with 3 ml of 1 mg/ml collagenase for 7 minutes at 37E C. After discarding the supernatants from digestions I and II, the calvariae were treated a further twice with 3 ml of 2 mg/ml collagenase (30 mins, 37E C.). The supernatants of digestions III and IV were pooled, centrifuged, and the cells washed in Dulbecco's modified Eagle's medium (DME) with 10% fetal calf serum (FCS), suspended in further DME/10% FCS and placed in 75 cm^2 flasks. The cells were incubated under 5% CO2 and 95% air at 37E C. Confluence was reached by 5-6 days, at which time the cells were subcultured. After trypsinization using trypsin-EDTA (0.05%/0.53 mM), the cells were rinsed in minimum essential medium (MEM) with 5% FCS and resuspended in fresh medium, the seeded at 5×10^4 cells/ml in 24-well plates (0.5 ml cell suspension per well, i.e. 2.5×10^4 cells/well).
Proliferation studies (cell counts and thymidine incorporation) were performed in subconfluent cell populations, 24 h after subculturing cells were changed to serum-free medium with 0.1% bovine serum albumin plus the experimental compounds. Cell numbers were analysed 24 hours after addition of the peptide or vehicle by detaching cells form the wells by exposure to trypsin/EDTA (0.05%/0.53 mM) for approximately 5 minutes at 37E C. Counting was performed in a hemocytometer chamber. Results are expressed per well. [^3H]-Thymidine incorporation into actively-growing and growth-arrested cells was assessed by pulsing the cells with [^3H]-thymidine ([…]) two hours before the end of the experimental incubation. Experiments were terminated at 24 hours by washing the cells in MEM followed by the addition of 10% trichloroacetic acid. The precipitate was washed twice with ethanol:ether (3:1) and the wells desiccated at room temperature. The residue was redissolved in 2 M KOH at 55E C. for 30 mins, neutralized with 1 M HCI, and an aliquot counted for radioactivity. Results are expressed as dpm per well. For cell counts and thymidine incorporation, each experiment was performed at least four different times using experimental groups consisting of at least six wells.

osteoblasts = conditions: background section; cited from earlier work
[2] = listed as amylin (1-8) with 2 to 7 disulphide bond removed

Compound	effect of pre-incubation for two hours on osteoblastic activity [1]	osteoblastic activity after pre-incubation for four or more hours [1]	effect on basal bone resorption (neonatal mouse calvariae)	effect on osteoblast cell number (fetal rat osteoblasts)	effect on thymidine incorporation (fetal rat osteoblasts)	EC50 (fetal rat osteoblasts; 24 h, FIG. 2)	ability to block amylin's stimulation of osteoblast proliferation after pre-incubation [1]	concentration that completely blocked the proliferative effect of intact amylin (fetal rat osteoblasts)	proliferative effect on osteoblasts (fetal rat osteoblasts)	blocking of the action of intact amylin on cell number (fetal rat osteoblasts)	blocking of the action of intact amylin on thymidine incorporation (fetal rat osteoblasts)	further results
C[C@H](NC(=O)[C@@H]1CSSC[C@H](NC(=O)[C@@H](N)CCCCN)C(=O)N[C@@H](CC(N)=O)C(=O)N[C@@H]([C@@H](C)O)C(=O)N[C@@H](C)C(=O)N[C@@H]([C@@H](C)O)C(=O)N1)C(N)=O [Amylin-(1-8), Lysine-c[cysteine-asparagine-threonine-alanine-threonine-cysteine]-alanine-NH2] (H-KCNTATCA-NH2; disulfide 2-7)	no effect	completely lost their activity	lack of effect	consistently stimulated	consistently stimulated	0.24 nM						effect on bone resorption, multiple additions (neonatal mouse calvariae; additions at 0, 8 and 30 hours, data not shown): did not influence bone resorption; effect on osteoblast cell number (fetal rat osteoblasts; listed as (1-8) fragment): stimulated both indices; effect on thymidine incorporation (fetal rat osteoblasts; listed as (1-8) fragment): stimulated both indices; concentrations at which the maximal effect on cell number was seen (fetal rat osteoblasts; 24 h, FIG. 2): ≥ 10^−9 M; maximal effect on cell number compared with intact amylin (fetal rat osteoblasts; 24 h, FIG. 2): not significantly less than that produced by the intact molecule; proliferative effect on osteoblasts (fetal rat osteoblasts; listed as Amylin (1-8)): active; proliferative effect on osteoblasts (fetal rat osteoblasts; listed as amylin-(1-8)): stimulates osteoblast proliferation
Amylin-(8-37): rat amylin fragment 8-37; functions as an amylin antagonist in other tissues							decreased their ability to block	≥ 10^−10 M				
Amylin: 37-amino acid peptide co-secreted with insulin from the beta cells of the pancreatic islets; rat amylin used	no effect	completely lost their activity	inhibited basal bone resorption	significant increase	significant increase	0.02 nM						concentrations giving dose-dependent stimulation of osteoblast proliferation (osteoblasts): ≥ 10^−11 M
CGRP-(8-37): the comparable (8-37) peptide fragment from CGRP (calcitonin gene-related peptide) (VTHRLAGLLSRSGGVVKNNFVPTNVGSKAF; ends and bridges not checked)								> 10^−8 M				
Reduced Amylin: Rat amylin reduced with dithiothreitol (2-7 disulphide removed)							decreased their ability to block		no proliferative effect	effective blockers	effective blockers	
Reduced amylin (1-8): amylin (1-8) reduced with dithiothreitol, 2 to 7 disulphide bond removed (KCNTATCA; Islet amyloid polypeptide reduced, disulphide removed; UniProt P12969 38-45, looked up, fragment)									no proliferative effect	effective blocker	effective blocker	blocking of amylin's inhibition of bone resorption (neonatal mouse calvariae; with amylin): did not act as a blocker; proliferative effect on osteoblasts (fetal rat osteoblasts; [2]): inactive; blocking of the effects of amylin-(1-8) on osteoblast proliferation (fetal rat osteoblasts): effective blocker; blocking of the effects of amylin-(1-8) on osteoblast proliferation (fetal rat osteoblasts; [2]): blocks the activity of amylin (1-8)
